# From patent US10245351B2, “Malleable hydrogel hybrids made of self-assembled peptides and biocompatible polymers and uses thereof” (Technology Innovation Momentum Fund (Israel) Limited …, priority 2010, dated 2019)
# System: CHO (Chinese Hamster Ovaries) cells
# Experiment: Cells viability test (MTT), cells on top of hydrogel
# Assay type: cell-based
# Experimental: To verify the ability of the hybrid hydrogels described herein to be used in biological applications, their biocompatibility was determined using an in vitro cell culture experiment. Three types of cells were cultivated on top of the hybrid hydrogels: CHO (Chinese Hamster Ovaries), fibroblasts and chondrocytes.
# CHO, fibroblasts and chondrocytes cells were grown in Dulbecco's Modified
# Eagle Medium (DMEM) supplemented with 10% fetal calf serum, 100 U/ml penicillin, 100 U/ml streptomycin, and 2 mmol/liter L-glutamine (all from Beit Haemeck, Israel). Cells were maintained at 37° C. in a humidified atmosphere containing 5% CO2. Subconfluent cultures were harvested by trypsinization, counted, and diluted in specific cells' media to form a cell concentration of 10^6 cells/ml. The gels swelled overnight with 0.1 ml DMEM. The next day, DMEM was removed and […] of the CHO cells (10^5 cells) were placed on top of the hydrogel. After 1, 3 and 7 days of incubation at 37° C. the viability of the cells was determined using an MTT assay.
# The cell viability was analyzed 1, 3 and 7 days post seeding. Cells seeded as monolayers with PBS were used as control. Cell viability was analyzed using an MTT assay. […]
substance,measurement,value
hyaluronic acid [HA],"viability, in words",high viability
